In patent US9409905B2, “Antibacterial compounds and methods for use” (PTC THERAPEUTICS, INC., priority 2011, dated 2016):
≈ marks a conversion by molar mass, not a printed value.

Assays:
[1] = test system: Acinetobacter baumannii (A. baumannii) BAA747; assay: Antibacterial activity, MIC (Table 4); type: cell-based; conditions: A. baumannii BAA747, read-out: MIC, BAA747
From the text: (§1) The antibacterial activity from a microbroth dilution method may be presented as the minimum inhibitory concentration (MIC in μg/mL). The MIC value is the lowest concentration of drug which prevents macroscopically visible growth under test conditions.
(§2) Antibacterial activity of test compounds against the Gram-negative Acinetobacter baumannii (A. baumannii) BAA747 and Klebsiella pneumoniae (K. pneumoniae) 35657 bacterium and the resistant A. baumannii MXX2240 and K. pneumoniae MXX1232 strains are shown in Table 4. The MMX strains are multi-drug resistant clinical isolates.

[2] = test system: Klebsiella pneumoniae (K. pneumoniae) 35657; assay: Antibacterial activity, MIC (Table 4); type: cell-based; conditions: K. pneumoniae 35657, read-out: MIC, 35657
From the text: as §1, §2

E. coli LZ3111 = assay: Antibacterial activity, MIC, quinolone resistant strain (Table 2); type: cell-based; conditions: Escherichia coli, LZ3111, read-out: MIC LZ3111
How it was run: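 Growth inhibition assessed by serial drug dilution in broth; endpoint was absence of macroscopically visible growth, reported as MIC, μg/mL.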

[3] = test system: Escherichia coli (E. coli) BAS849; assay: Antibacterial activity, microbroth dilution MIC (Table 1); type: cell-based; conditions: microbroth dilution, super sensitive Gram-negative E. coli BAS849, read-out: MIC, BAS849
How it was run: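 Using broth microdilution, MIC endpoints (μg/mL) mark where visible growth no longer appears; the panel spans sensitive and control Gram-negative strains plus a Gram-positive strain.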

[4] = test system: Staphylococcus aureus (S. aureus) 29213; assay: as above; type: cell-based; conditions: microbroth dilution, Gram-positive S. aureus 29213, read-out: MIC, 29213
How it was run: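 Microbroth dilution was used. MIC, in μg/mL, is the lowest drug concentration preventing macroscopically visible growth under the test conditions.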

[5] = test system: Pseudomonas aeruginosa (P. aeruginosa) 27853; assay: Antibacterial activity, MIC (Table 5); type: cell-based; conditions: P. aeruginosa 27853, read-out: MIC, 27853
From the text: as §1
Antibacterial activity of test compounds against the Gram-negative bacterium Pseudomonas aeruginosa (P. aeruginosa) 27853 is shown in Table 5.

E. coli 25922 = assay: Antibacterial activity, microbroth dilution MIC (Table 1); type: cell-based, Escherichia coli; conditions: Escherichia coli; microbroth dilution; control Gram-negative E. coli 25922 strain; read-out: MIC, 25922
How it was run: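 Lowest concentration stopping macroscopically visible growth under test conditions, by broth microdilution, defines the MIC (μg/mL).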

SMILES | MIC [1] | MIC [2] | MIC (E. coli LZ3111) | MIC [3] | MIC [4] | MIC [5] | MIC (E. coli 25922)
CCc1cc(C(=O)O)c(=O)[nH]c1-c1ccc2c(c1)cc(CN1CCC(O)C1)n2C (stereo not shown) [Cpd 125, 5-ethyl-6-(2-((3-hydroxypyrrolidin-1-yl)methyl)-1-methyl-1H-indol-5-yl)-2-oxo-1,2-dihydropyridine-3-carboxylic acid] | 12.5 to 150 µg/mL (≈ 31.6 to 379 µM) | < 1 µg/mL | 12.5 to 150 µg/mL (≈ 31.6 to 379 µM) | < 1 µg/mL | 12.5 to 150 µg/mL (≈ 31.6 to 379 µM) | 12.5 to 150 µg/mL (≈ 31.6 to 379 µM) | 1 to 3.5 µg/mL (≈ 2.53 to 8.85 µM)
CCc1cc(C(=O)O)c(=O)[nH]c1-c1ccc2c(c1)cc(CN1CCCC1c1ccccc1)n2C (stereo not shown) [Cpd 131, 5-ethyl-6-(1-methyl-2-((2-phenylpyrrolidin-1-yl)methyl)-1H-indol-5-yl)-2-oxo-1,2-dihydropyridine-3-carboxylic acid] | 3.5 to 12.5 µg/mL (≈ 7.68 to 27.4 µM) | 12.5 to 150 µg/mL (≈ 27.4 to 329 µM) | 12.5 to 150 µg/mL (≈ 27.4 to 329 µM) | < 1 µg/mL | 1 to 3.5 µg/mL (≈ 2.2 to 7.68 µM) | 12.5 to 150 µg/mL (≈ 27.4 to 329 µM) | 1 to 3.5 µg/mL (≈ 2.2 to 7.68 µM)
CCc1cc(C(=O)O)c(=O)[nH]c1-c1ccc2c(c1)cc1n2CCC1N1CCOCC1 (stereo not shown) [Cpd 155, 5-ethyl-6-(1-morpholino-2,3-dihydro-1H-pyrrolo[1,2-a]indol-7-yl)-2-oxo-1,2-dihydropyridine-3-carboxylic acid] | 12.5 to 150 µg/mL (≈ 30.7 to 368 µM) | 3.5 to 12.5 µg/mL (≈ 8.59 to 30.7 µM) | 12.5 to 150 µg/mL (≈ 30.7 to 368 µM) | < 1 µg/mL | 12.5 to 150 µg/mL (≈ 30.7 to 368 µM) | 12.5 to 150 µg/mL (≈ 30.7 to 368 µM) | 3.5 to 12.5 µg/mL (≈ 8.59 to 30.7 µM)
Cn1c(CN2CCCC2)cc2cc(-c3[nH]c(=O)c(C(=O)O)c(O)c3-c3ccc(F)cc3)ccc21 [Cpd 309, 5-(4-fluorophenyl)-4-hydroxy-6-(1-methyl-2-(pyrrolidin-1-ylmethyl)-1H-indol-5-yl)-2-oxo-1,2-dihydropyridine-3-carboxylic acid] |  |  | 12.5 to 150 µg/mL (≈ 27.1 to 325 µM) | < 1 µg/mL | 12.5 to 150 µg/mL (≈ 27.1 to 325 µM) |  | 3.5 to 12.5 µg/mL (≈ 7.58 to 27.1 µM)
CN(C)Cc1cc2cc(-c3[nH]c(=O)c(C(=O)O)c(O)c3-c3ccc(F)cc3)ccc2n1C [Cpd 310, 6-(2-((dimethylamino)methyl)-1-methyl-1H-indol-5-yl)-5-(4-fluorophenyl)-4-hydroxy-2-oxo-1,2-dihydropyridine-3-carboxylic acid] |  |  | 12.5 to 150 µg/mL (≈ 28.7 to 344 µM) | < 1 µg/mL | 12.5 to 150 µg/mL (≈ 28.7 to 344 µM) |  | 3.5 to 12.5 µg/mL (≈ 8.04 to 28.7 µM)
Cn1c(CNCC2CC2)cc2cc(-c3[nH]c(=O)c(C(=O)O)c(O)c3-c3ccc(F)cc3)ccc21 [Cpd 311, 6-(2-((cyclopropylmethylamino)methyl)-1-methyl-1H-indol-5-yl)-5-(4-fluorophenyl)-4-hydroxy-2-oxo-1,2-dihydropyridine-3-carboxylic acid] |  |  | 12.5 to 150 µg/mL (≈ 27.1 to 325 µM) | < 1 µg/mL | 12.5 to 150 µg/mL (≈ 27.1 to 325 µM) |  | 1 to 3.5 µg/mL (≈ 2.17 to 7.58 µM)
Cn1c(CN2CCC2)cc2cc(-c3[nH]c(=O)c(C(=O)O)c(O)c3-c3ccc(F)cc3)ccc21 [Cpd 312, 6-(2-(azetidin-1-ylmethyl)-1-methyl-1H-indol-5-yl)-5-(4-fluorophenyl)-4-hydroxy-2-oxo-1,2-dihydropyridine-3-carboxylic acid] |  |  | 12.5 to 150 µg/mL (≈ 27.9 to 335 µM) | < 1 µg/mL | 12.5 to 150 µg/mL (≈ 27.9 to 335 µM) |  | 3.5 to 12.5 µg/mL (≈ 7.82 to 27.9 µM)
CC(C)c1c(-c2ccc3c(c2)cc(CN2CCCC2)n3C)[nH]c(=O)c(C(=O)O)c1O [Cpd 319, 4-hydroxy-5-isopropyl-6-(1-methyl-2-(pyrrolidin-1-ylmethyl)-1H-indol-5-yl)-2-oxo-1,2-dihydropyridine-3-carboxylic acid] |  |  | 12.5 to 150 µg/mL (≈ 30.5 to 366 µM) | < 1 µg/mL | 3.5 to 12.5 µg/mL (≈ 8.55 to 30.5 µM) |  | 1 to 3.5 µg/mL (≈ 2.44 to 8.55 µM)
CC(C)c1c(-c2ccc3c(c2)cc(CN2CCC2)n3C)[nH]c(=O)c(C(=O)O)c1O [Cpd 320, 6-(2-(azetidin-1-ylmethyl)-1-methyl-1H-indol-5-yl)-4-hydroxy-5-isopropyl-2-oxo-1,2-dihydropyridine-3-carboxylic acid] |  |  | 12.5 to 150 µg/mL (≈ 31.6 to 379 µM) | < 1 µg/mL | 3.5 to 12.5 µg/mL (≈ 8.85 to 31.6 µM) |  | 1 to 3.5 µg/mL (≈ 2.53 to 8.85 µM)
CC(C)c1c(-c2ccc3c(c2)cc(CNCC2CC2)n3C)[nH]c(=O)c(C(=O)O)c1O [Cpd 321, 6-(2-((cyclopropylmethylamino)methyl)-1-methyl-1H-indol-5-yl)-4-hydroxy-5-isopropyl-2-oxo-1,2-dihydropyridine-3-carboxylic acid] |  |  | 12.5 to 150 µg/mL (≈ 30.5 to 366 µM) | < 1 µg/mL | 3.5 to 12.5 µg/mL (≈ 8.55 to 30.5 µM) |  | 1 to 3.5 µg/mL (≈ 2.44 to 8.55 µM)
CN(C)Cc1cc2cc(-c3cc(O)c(C(=O)O)c(=O)[nH]3)ccc2n1C [Cpd 326, 6-(2-((dimethylamino)methyl)-1-methyl-1H-indol-5-yl)-4-hydroxy-2-oxo-1,2-dihydropyridine-3-carboxylic acid] |  |  | 12.5 to 150 µg/mL (≈ 36.6 to 439 µM) | 12.5 to 150 µg/mL (≈ 36.6 to 439 µM) | 12.5 to 150 µg/mL (≈ 36.6 to 439 µM) |  | 12.5 to 150 µg/mL (≈ 36.6 to 439 µM)
Cn1c(CN2CCCC2)cc2cc(-c3cc(O)c(C(=O)O)c(=O)[nH]3)ccc21 [Cpd 327, 4-hydroxy-6-(1-methyl-2-(pyrrolidin-1-ylmethyl)-1H-indol-5-yl)-2-oxo-1,2-dihydropyridine-3-carboxylic acid] |  |  | 12.5 to 150 µg/mL (≈ 34 to 408 µM) | 3.5 to 12.5 µg/mL (≈ 9.53 to 34 µM) | 12.5 to 150 µg/mL (≈ 34 to 408 µM) |  | 12.5 to 150 µg/mL (≈ 34 to 408 µM)
CCc1c(-c2ccc3c(c2)cc(CN2CCCC2)n3C)[nH]c(=O)c(C(=O)O)c1N [Cpd 329, 4-amino-5-ethyl-6-(1-methyl-2-(pyrrolidin-1-ylmethyl)-1H-indol-5-yl)-2-oxo-1,2-dihydropyridine-3-carboxylic acid] |  |  | 12.5 to 150 µg/mL (≈ 31.7 to 380 µM) | < 1 µg/mL | 12.5 to 150 µg/mL (≈ 31.7 to 380 µM) |  | 3.5 to 12.5 µg/mL (≈ 8.87 to 31.7 µM)
CCc1c(-c2ccc3c(c2)cc(CN(C)C)n3C)[nH]c(=O)c(C(=O)O)c1N [Cpd 330, 4-amino-6-(2-((dimethylamino)methyl)-1-methyl-1H-indol-5-yl)-5-ethyl-2-oxo-1,2-dihydropyridine-3-carboxylic acid] |  |  | 12.5 to 150 µg/mL (≈ 33.9 to 407 µM) | < 1 µg/mL | 12.5 to 150 µg/mL (≈ 33.9 to 407 µM) |  | 3.5 to 12.5 µg/mL (≈ 9.5 to 33.9 µM)
CCc1c(-c2ccc3c(c2)cc(CN2CCC(N(C)C)C2)n3C)[nH]c(=O)c(C(=O)O)c1N (stereo not shown) [Cpd 332, 4-amino-6-(2-((3-(dimethylamino)pyrrolidin-1-yl)methyl)-1-methyl-1H-indol-5-yl)-5-ethyl-2-oxo-1,2-dihydropyridine-3-carboxylic acid] |  |  | 12.5 to 150 µg/mL (≈ 28.6 to 343 µM) | 3.5 to 12.5 µg/mL (≈ 8 to 28.6 µM) | 12.5 to 150 µg/mL (≈ 28.6 to 343 µM) |  | 12.5 to 150 µg/mL (≈ 28.6 to 343 µM)
CCc1c(-c2ccc3c(c2)c(C#N)cn3C)[nH]c(=O)c(C(=O)O)c1O [Cpd 359, 6-(3-cyano-1-methyl-1H-indol-5-yl)-5-ethyl-4-hydroxy-2-oxo-1,2-dihydropyridine-3-carboxylic acid] |  |  | 1 to 3.5 µg/mL (≈ 2.96 to 10.4 µM) | 3.5 to 12.5 µg/mL (≈ 10.4 to 37.1 µM) | 12.5 to 150 µg/mL (≈ 37.1 to 445 µM) |  | 12.5 to 150 µg/mL (≈ 37.1 to 445 µM)
CCc1c(-c2ccc3c(c2)c(C#N)c(N2CCCC2)n3C)[nH]c(=O)c(C(=O)O)c1O [Cpd 360, 6-(3-cyano-1-methyl-2-(pyrrolidin-1-yl)-1H-indol-5-yl)-5-ethyl-4-hydroxy-2-oxo-1,2-dihydropyridine-3-carboxylic acid] |  |  | 12.5 to 150 µg/mL (≈ 30.8 to 369 µM) | 3.5 to 12.5 µg/mL (≈ 8.61 to 30.8 µM) | 1 to 3.5 µg/mL (≈ 2.46 to 8.61 µM) |  | 12.5 to 150 µg/mL (≈ 30.8 to 369 µM)
CCc1c(-c2ccc3c(c2)c(C#N)c(N(C)C)n3C)[nH]c(=O)c(C(=O)O)c1O [Cpd 361, 6-(3-cyano-2-(dimethylamino)-1-methyl-1H-indol-5-yl)-5-ethyl-4-hydroxy-2-oxo-1,2-dihydropyridine-3-carboxylic acid] |  |  | 12.5 to 150 µg/mL (≈ 32.9 to 394 µM) | 1 to 3.5 µg/mL (≈ 2.63 to 9.2 µM) | 3.5 to 12.5 µg/mL (≈ 9.2 to 32.9 µM) |  | 12.5 to 150 µg/mL (≈ 32.9 to 394 µM)
CCc1c(-c2ccc3c(c2)c(Cl)cn3C)[nH]c(=O)c(C(=O)O)c1O [Cpd 363, 6-(3-chloro-1-methyl-1H-indol-5-yl)-5-ethyl-4-hydroxy-2-oxo-1,2-dihydropyridine-3-carboxylic acid] |  |  | 1 to 3.5 µg/mL (≈ 2.88 to 10.1 µM) | < 1 µg/mL | 1 to 3.5 µg/mL (≈ 2.88 to 10.1 µM) |  | 12.5 to 150 µg/mL (≈ 36 to 433 µM)
